{"source": "paper PMC10708623", "about": "“The Synergistic Effect of GH13 and GH57 GBEs of Petrotoga mobilis Results in α-Glucan Molecules with a Higher Branch Density” (Polymers, 2023)", "molecular_target": "T1, PmGBE57 (Petrotoga mobilis, UniProt A9BH92)", "T1 construct": "gene Pmob_0588; full-length codon-optimized gene in pET28a(+), C-terminal His-tag, expressed in E. coli BL21(DE3), Ni-NTA purified", "T1 sequence (A9BH92 1-538)": "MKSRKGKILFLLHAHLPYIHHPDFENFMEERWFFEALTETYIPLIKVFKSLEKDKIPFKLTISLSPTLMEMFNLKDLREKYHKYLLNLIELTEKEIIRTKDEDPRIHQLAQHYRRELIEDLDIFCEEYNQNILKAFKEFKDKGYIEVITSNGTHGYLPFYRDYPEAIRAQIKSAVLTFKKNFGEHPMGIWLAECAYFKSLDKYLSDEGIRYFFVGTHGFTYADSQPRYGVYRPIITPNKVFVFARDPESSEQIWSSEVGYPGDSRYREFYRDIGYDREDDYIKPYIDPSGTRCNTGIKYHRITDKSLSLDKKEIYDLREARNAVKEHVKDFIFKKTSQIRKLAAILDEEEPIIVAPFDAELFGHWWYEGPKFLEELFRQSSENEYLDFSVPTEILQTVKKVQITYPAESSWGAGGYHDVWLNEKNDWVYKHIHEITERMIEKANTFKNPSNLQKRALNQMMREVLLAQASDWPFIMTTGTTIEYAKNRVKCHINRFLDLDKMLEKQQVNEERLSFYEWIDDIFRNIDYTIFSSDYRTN", "experiment": "HPAEC-PAD chain length analysis after […] h", "format": "biochemical", "conditions": "1 U^B/g substrate, hydrolysis only, reagent also contains DP6", "data": [{"smiles": "OC[C@H]1O[C@H](O[C@H]2[C@H](O)[C@@H](O)[C@@H](O[C@H]3[C@H](O)[C@@H](O)[C@@H](O[C@H]4[C@H](O)[C@@H](O)[C@@H](O[C@H]5[C@H](O)[C@@H](O)[C@@H](O[C@H]6[C@H](O)[C@@H](O)[C@@H](O[C@H]7[C@H](O)[C@@H](O)C(O)O[C@@H]7CO)O[C@@H]6CO)O[C@@H]5CO)O[C@@H]4CO)O[C@@H]3CO)O[C@@H]2CO)[C@H](O)[C@@H](O)[C@@H]1O", "note": "(stereo partly shown) [MD7, maltoheptaose]", "values": [{"measurement": "HPAEC-PAD chain length analysis after 24 h", "result": "PmGBE57 showed the ability to utilize the short DP7 chains"}]}]}
